Values belong to the molecule of their own block, whether it stands above or below them.
What was measured:
[1] = target: T1, MMP-9 (catalytic domain, human, recombinant) (Homo sapiens, UniProt P14780); assay: MMP-9 fluorescence-based inhibition assay with and without β-glucosidase; format: biochemical; settings: for inhibition of MMP-9 when exposed to β-glucosidase: 1 mM for 2, 4 mM for 4, 125 μM for 6; for inhibition of MMP-9 in the absence of β-glucosidase: 1 mM for 2, 4 mM for 4, 125 μM for 6, 16 μM for 8
T1 construct: MMP-9 (catalytic domain, human, recombinant); purchased BIOMOL International
T1 sequence (P14780 107-444 limits assumed): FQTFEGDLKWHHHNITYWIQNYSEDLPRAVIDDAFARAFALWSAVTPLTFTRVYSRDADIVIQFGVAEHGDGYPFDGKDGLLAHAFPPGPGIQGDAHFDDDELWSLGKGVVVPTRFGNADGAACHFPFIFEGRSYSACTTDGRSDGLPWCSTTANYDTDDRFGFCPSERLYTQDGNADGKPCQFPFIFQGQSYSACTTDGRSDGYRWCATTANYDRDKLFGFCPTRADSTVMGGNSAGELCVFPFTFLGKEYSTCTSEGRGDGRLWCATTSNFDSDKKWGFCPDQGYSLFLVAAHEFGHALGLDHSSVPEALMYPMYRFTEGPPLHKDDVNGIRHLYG
Method: MMP-9 (catalytic domain, human, recombinant), MMP-8 (catalytic domain, human, recombinant), and the assay kit were purchased from BIOMOL International. The assays were carried out according to the procedure provided with the kit. MMP activity was measured in 96-well plates using a Bio-Tek Flx 800 fluorescent plate reader. The ZBGs and their protected analogs were dissolved in DMSO and diluted in HEPES buffer (50 mM, pH 7.5) to a concentration of 10 mM for 1-2, 40 mM for 3-4, and 1.25 mM for 5-6. Each well contained 20 μL, of MMP-9 (0.45 U/mL), inhibitor (10 μL, of 1-6), 5 μL, of β-glucosidase (1 U/μL) when used, and buffer for a total volume of 99 μL. These were incubated for 1 h at 37° C. […] The reaction was initiated by the addition of 1 μL (400 μM) of the fluorescent substrate (Mca-Pro-Leu-Gly-Leu-Dpa-Ala-Arg-NH2 where Mca=(7-methoxycoumarin-4-yl)-acetyl and Dpa=N-3-(2,4-dinitrophenyl)-L-α-β-diaminopropionyl)) and kinetic activity was measured every minute for 30 min with excitation and emission wavelengths at 335 nm and 405 nm, respectively. Enzyme activity with inhibitor was calculated with respect to the control experiment (no inhibitor present). Measurements were performed in duplicate in two independent experiments.
For Cmpds 7 and 8, 1 mL sample in HEPES buffer at a concentration of 1 mM was incubated at 37° C. with 250 U of β-glucosidase (1 U/μL) for 4 h giving a final concentration of 0.8 mM of the inhibitor. After 4 h, a 200 μL aliquot was collected and filtered through a microcentrifuge filter. UV-Vis absorption spectroscopy was to verify that the concentration of 1,2-HOPO-2 was 0.71±0.2 mM in each of the samples using the extinction coefficient for 1,2-HOPO-2 (7) calculated at 346 nm (4,279.3±372 M-1 cm-1). Each well was made up with 20 μL of MMP-9 (0.45 U/mL), inhibitor (2 μL, for 7 and 8), and buffer for a total volume of 99 μL. These were incubated for 30 min at 37° C. For MMP-8 inhibition assays, each of the samples was diluted to 1 μM in HEPES buffer and 15 μL of each were added to 20 μL of MMP-8 (0.092 U/mL) and buffer for a total of 99 μL. The reaction was initiated by the addition of 1 μL (400 μM) of the fluorescent substrate and kinetic activity was measured every minute for 30 min with excitation and emission wavelengths at 335 nm and 405 nm, respectively. Enzyme activity with inhibitor was calculated with respect to the control experiment (no inhibitor present). A control sample was also performed, in which an aliquot of 250 U of β-glucosidase (1 U/μL) with 1 mL of HEPES buffer was incubated for 4 h at 37° C., filtered through a microcentrifuge filter, and evaluated in the MMP assay to confirm that no inhibition is observed with β-glucosidase. Measurements were performed in duplicate in two independent experiments. […]

[2] = Cleavage of boronic ester/acid protected compounds by H2O2 (UV-Vis, rate constant, HPLC); format: physicochemical; settings: for k, pseudo first-order rate constants calculated with an excess of H2O2: 50 μM in HEPES buffer pH 7.5, room temperature
Method: (§1) Absorption spectra of compounds B1-B16 were taken on a Perkin-Elmer Lambda 25 UV-visible spectrophotometer. To a 1.0 mL solution at 0.05 mM concentration in HEPES buffer (50 mM, pH 7.5) was added H2O2 (10 uL (0.09 M) in HEPES for compounds B1-B12 and B14-B16, 10 uL (0.9 M) in HEPES for compound B3, and 2.8 uL (0.09 M) in HEPES for compound B13). Spectra were monitored over time at room temperature. Absorption spectra of compounds B17-B21 were taken on a Perkin-Elmer Lambda 25 UV-visible spectrophotometer. To a 1.0 mL solution at 0.05 mM concentration of compounds 1-7 in HEPES buffer (50 mM, pH=7.5) was added H2O2 (10 uL, 0.09 M in HEPES) or KO2 (0.10 mM) with catalase (5 U). Hydrolytic stability was measured by monitoring samples of B19-B21 in HEPES buffer for a 24 h time period. Spectra were monitored over time at room temperature.
The pseudo-first order rate constant was calculated by monitoring the absorption spectra over time in the presence of excess hydrogen peroxide. To a 1.0 mL solution of compounds B1-B3 and B10-B14 in HEPES buffer (50 mM, pH 7.5) at 50 μM was added H2O2 to final concentrations of 150 μM, 250 μM, 500 μM, 750 μM, and 900 μM. Spectra were monitored over 15-30 min at room temperature with at least 50 spectra recorded. The change in absorption at 302 nm for B1-B3, 272 nm for B10, 312 nm for B11, 268 for B12, 306 nm for B13, and 303 nm for B14 were monitored. For compounds B1-B3 and B10-B11, the rate constant (kobs) was found from monitoring the appearance of the monitored absorption peak by plotting the linear slope of ln [(A∞−At)/(A∞)] vs. time (where A∞ is the absorbance of a 50 μM sample of the methyl salicylate for B1-B3, maltol for B10, and 1,2-HOPO for B11). For compounds B12-B14 the rate constant (kobs) was found from monitoring the disappearance of the monitored absorption peak by plotting the linear slope of ln [(A−AZBG)/(A0−AZBG)] vs. time (where AZBG is the absorbance of a 50 μM sample of the ZBG and A0 is the initial absorbance of […]).^3 The rate of conversion was determined from the slope of the line of kobs vs. [H2O2]. The pseudo-first order rate constant was calculated following literature procedure.^[15] To a 1.0 mL solution of compounds B19-B21 in HEPES buffer at 50 μM was added H2O2 to final concentrations of 150 μM, 250 μM, 500 μM, 750 μM, and 900 μM. Spectra were monitored over 15-30 min at room temperature with at least 50 spectra recorded. The change in absorption at 292 nm for B19 and 252 nm for B20 and B21 were monitored. The rate constant (kobs) was found from the linear slope of ln [(A−AZBG)/(A0−AZBG)] vs. time (where AZBG is the absorbance of a 50 μM sample of the ZBG and A0 is the initial absorbance of B19-B21). The rate of conversion was determined from the slope of the line of kobs vs. [H2O2].
Analytical HPLC was performed on a HP Series 1050 system equipped with a Vydac® C18 reverse phase column (218 TP, 250×4.6 mm, 5 μm). […] Starting with 95% A and 5% B, an […] gradient was run for 15 min to a final solvent mixture of 5% A and 95% B, which was held for 5 min before ramping back down to 95% A and 5% B in 2 min and holding for an additional 4 min. Compounds were prepared in HEPES buffer (50 mM, pH 7.5) at a concentration of 1 mM. Retention times of compounds were determined under identical HPLC conditions prior to and after reaction with H2O2. LC-MS(+) was performed on compounds B6, B15 and B16 to confirm cleavage of the boronic ester to the phenolic moiety.

[3] = Hydrolytic stability of boronic ester compounds in HEPES buffer; format: physicochemical; settings: for hydrolytic stability in buffer: 4 h period
Method: as §1

[4] = Hydrolytic stability of sulfonate esters in HEPES buffer; format: physicochemical
Method: Absorption spectra of compounds were taken on a Perkin-Elmer Lambda 25 UV-Visible Spectrophotometer. To a 1.0 mL solution at 0.05 mM concentration of each compound in HEPES buffer (50 mM, pH 7.5) was added H2O2 (10 μL, 0.09M in HEPES) and absorption spectra were monitored over time at room temperature. Hydrolytic stability was measured by monitoring each sample in HEPES buffer over a 24 hour time period.

SMILES: Cc1occc(=O)c1OC1OC(CO)C(O)C(O)C1O [Compound 4, 2-Methyl-4H-pyran-4-one-3-β-D-glucopyranoside]
inhibition of MMP-9 when exposed to β-glucosidase [1]: complete restoration of inhibition
inhibition of MMP-9 in the absence of β-glucosidase [1]: attenuated inhibition

SMILES: COC(=O)c1ccccc1B1OC(C)(C)C(C)(C)O1 [Compound B3, Methyl 2-(4,4,5,5-tetramethyl-1,3,2-dioxaborolan-2-yl)benzoate]
k, pseudo first-order rate constants calculated with an excess of H2O2 [2]: 0.031 ± 0.002 M⁻¹ s⁻¹
hydrolytic stability in buffer [3]: comparable to the ether linkage used in B1

SMILES: Cc1c(OCc2ccc(B3OC(C)(C)C(C)(C)O3)cc2)c(=O)ccn1C [Compound B12, 1,2-Dimethyl-3-((4-(4,4,5,5-tetramethyl-1,3,2-dioxaborolan-2-yl)benzyl)oxy)pyridin-4(1H)-one]
k, pseudo first-order rate constants calculated with an excess of H2O2 [2]: 3.5 ± 0.3 M⁻¹ s⁻¹

SMILES: CC1(C)OB(c2ccc(COc3cccccc3=O)cc2)OC1(C)C [Compound B13, 2-((4-(4,4,5,5-Tetramethyl-1,3,2-dioxaborolan-2-yl)benzyl)oxy)cyclohepta-2,4,6-trienone]
k, pseudo first-order rate constants calculated with an excess of H2O2 [2]: 2.9 ± 0.1 M⁻¹ s⁻¹

SMILES: CC1(C)OB(c2ccc(COc3cccc4cccnc34)cc2)OC1(C)C [Compound B14, 8-((4-(4,4,5,5-Tetramethyl-1,3,2-dioxaborolan-2-yl)benzyl)oxy)quinoline]
k, pseudo first-order rate constants calculated with an excess of H2O2 [2]: 4.1 ± 0.2 M⁻¹ s⁻¹

SMILES: O=c1ccccn1OS(=O)(=O)c1ccc([N+](=O)[O-])cc1[N+](=O)[O-] [PZBG-1d, 2-Oxopyridin-1(2H)-yl 2,4-dinitrobenzenesulfonate]
stability in aqueous buffer in the absence of H2O2 [4]: rapid hydrolytic cleavage

Further lines, with some results ahead:

inhibition of MMP-9 when exposed to β-glucosidase [1]: complete restoration of inhibition
inhibition of MMP-9 in the absence of β-glucosidase [1]: attenuated inhibition
SMILES: O=c1ccccn1OC1OC(CO)C(O)C(O)C1O [Compound 2, 1-Hydroxypyridin-2(1H)-one-β-D-glucopyranoside]

inhibition of MMP-9 when exposed to β-glucosidase [1]: complete restoration of inhibition
inhibition of MMP-9 in the absence of β-glucosidase [1]: attenuated inhibition
SMILES: Cc1occc(=S)c1OC1OC(CO)C(O)C(O)C1O [Compound 6, 2-Methyl-4H-pyran-4-thione-3-β-D-glucopyranoside]

hydrolytic stability in buffer [3]: stable
SMILES: COC(=O)c1ccccc1OCc1ccc(B2OC(C)(C)C(C)(C)O2)cc1 [Compound B1, Methyl 2-((4-(4,4,5,5-tetramethyl-1,3,2-dioxaborolan-2-yl)benzyl)oxy)benzoate]
k, pseudo first-order rate constants calculated with an excess of H2O2 [2]: 1.12 ± 0.04 M⁻¹ s⁻¹

hydrolytic stability in buffer [3]: spontaneous hydrolytic cleavage
SMILES: COC(=O)c1ccccc1OC(=O)OCc1ccc(B2OC(C)(C)C(C)(C)O2)cc1 [Compound B2, Methyl 2-((((4-(4,4,5,5-tetramethyl-1,3,2-dioxaborolan-2-yl)benzyl)oxy)carbonyl)oxy)benzoate]
k, pseudo first-order rate constants calculated with an excess of H2O2 [2]: 2.7 ± 0.1 M⁻¹ s⁻¹

hydrolysis in buffer ([3]; 24 h time period): > 50%
SMILES: Cc1occc(=O)c1OC(=O)OCc1ccc(B2OC(C)C(C)(C)O2)cc1 (stereo not drawn) [Compound B21, 2-methyl-4-oxo-4H-pyran-3-yl 4-(4,4,5-trimethyl-1,3,2-dioxaborolan-2-yl)benzyl carbonate]
rate constant of conversion with an excess of H2O2 ([2]; pseudo-first order conditions, HEPES buffer): 6.7 M⁻¹ s⁻¹

— patent US8889638B2, “Stimulus-triggered prodrugs” (The Regents of the University of California, priority 2010, dated 2014)
